Test results from PMC6930500, “Structure–Activity Relationships of 7-Substituted Dimethyltyrosine-Tetrahydroisoquinoline Opioid Peptidomimetics” (Molecules, 2019).

Legend:
[1] = biological target: T1, human DOR (Homo sapiens, UniProt P41143); assay: [35S]-GTPγS binding stimulation, DOR; format: biochemical; conditions: mean (SEM), * n = 2; for % Stimulation DOR: versus 10 µM standard agonist DPDPE, dns = average maximal stimulation <10% at up to 10 µM
T1 construct: expressed in transfected cells; cell lines provided by Professor Lawrence Toll
Procedure: (§1) Each novel compound was evaluated for binding to and stimulation of KOR, MOR, and DOR. Binding affinity (Ki) was determined by competitive displacement of [^3H]-diprenorphine, a non-selective opioid receptor antagonist with similar affinity for each of the three receptors. Potency (EC50) and efficacy, expressed as percent stimulation compared to a standard agonist at each receptor, were determined by a [^35S]-GTPγS binding assay.
(§2) Membranes prepared from transfected Chinese Hamster Ovary cells stably expressing human KOR, human MOR, or human DOR were used for all assays. Cells were grown to confluence at 37 °C in 5% CO2 in 1:1 DMEM:F12 media with 10% v/v fetal bovine serum and 5% v/v penicillin/streptomycin. Membranes were prepared by washing confluent cells three times with ice cold phosphate-buffered saline (0.9% NaCl, 0.61 mM Na2HPO4, 0.38 mM KH2PO4, pH 7.4). Cells were detached from the plates by incubation in warm harvesting buffer (20 mM HEPES, 150 mM NaCl, 0.68 mM EDTA, pH 7.4) and pelleted by centrifugation at 200× g for 3 min. The cell pellet was suspended in ice-cold 50 mM Tris-HCl buffer, pH 7.4 and homogenized with a Tissue Tearor (Biospec Products, Inc, distributed by Cole-Parmer, Vernon Hills, IL, USA) for 20 s at setting 4. The homogenate was centrifuged at 20,000× g for 20 min at 4 °C, and the pellet was rehomogenized in 50 mM Tris-HCl pH 7.4 with a Tissue Tearor for 10 s at setting 2, followed by recentrifugation. The final pellet was resuspended in 50 mM Tris-HCl pH 7.4 and frozen in aliquots at −80 °C. Protein concentration was determined via Pierce BCA protein assay kit using bovine serum albumin as the standard.
(§3) Agonist stimulation of KOR, MOR, and DOR by all test compounds was determined by [^35S]-guanosine 5′-O-[γ-thio]triphosphate ([^35S]-GTPγS) binding assays as previously reported. In a 96-well plate format, membranes from cells expressing opioid receptors as described above (10 µg of protein), [^35S]-GTPγS (0.1 nM), and guanosine diphosphate (30 µM) were incubated in GTPγS buffer (50 mM Tris-HCl, 100 mM NaCl, 5 mM MgCl2, 1 mM EDTA, pH 7.4) with various concentrations of test compound at 25 °C for 1 h. Basal stimulation was determined by incubation in the absence of any ligand. After incubation, membranes were filtered through Whatman GF/C 1.2 micron glass fiber filters and washed with GTPγS buffer with no EDTA. The radioactivity remaining on the filters was then quantified by liquid scintillation counting after saturation with EcoLume liquid scintillation cocktail in a Perkin-Elmer Microbeta 2450. Data are reported as percent stimulation compared to the effects of 10 µM standard agonists—U69,593 (KOR), DAMGO (MOR), or DPDPE (DOR). Percent stimulation and EC50 values were determined via nonlinear regression analysis using GraphPad Prism software from at least three separate assays performed in duplicate. Efficacy is expressed as percent stimulation relative to standard agonists.

[2] = biological target: T2, human MOR (Homo sapiens, UniProt P35372); assay: [35S]-GTPγS binding stimulation, MOR; format: biochemical; conditions: mean (SEM), * n = 2; for EC50: CHO-human MOR membranes, dns = does not stimulate, average maximal stimulation <10% at up to 10 µM; for Emax: versus 10 µM standard agonist DAMGO, dns = average maximal stimulation <10% at up to 10 µM
T2 construct: expressed in transfected cells; cell lines provided by Professor Lawrence Toll
Procedure: as §1, §2, §3

[3] = biological target: T1, human DOR; assay: [3H]-diprenorphine competitive displacement binding, DOR; conditions: membranes from CHO cells expressing human DOR; mean (SEM), n>=3 in duplicate
Procedure: as §1, §2
(§4) Binding affinities for all test compounds at KOR, MOR, and DOR were determined by competitive displacement of [^3H]-diprenorphine as previously reported. In a 96-well plate format, cell membranes (5–10 µg of protein) and [^3H]-diprenorphine (0.2 nM) were incubated in Tris-HCl buffer (50 mM, pH 7.4) with various concentrations of test compound at 25 °C for 1 h, allowing the mixture to reach equilibrium. Nonspecific binding was determined using the opioid antagonist naloxone (10 µM), and total binding was determined using vehicle in the absence of competitive ligand. After incubation, membranes were filtered through Whatman GF/C 1.2 micron glass fiber filters and washed with 50 mM Tris-HCl buffer. The radioactivity remaining on the filters was then quantified by liquid scintillation counting after saturation with EcoLume liquid scintillation cocktail in a Microbeta 2450 (Perkin-Elmer, Waltham, MA, USA). Binding affinity (Ki) values were calculated using the Cheng–Prusoff equation via nonlinear regression analysis using GraphPad Prism software from at least three separate binding assays performed in duplicate.

[4] = biological target: T3, human KOR (Homo sapiens, UniProt P41145); assay: [3H]-diprenorphine competitive displacement binding, KOR; conditions: for Ki: membranes from CHO cells expressing human KOR, mean (SEM), n>=3 in duplicate
T3 construct: expressed in transfected cells; cell lines provided by Professor Lawrence Toll
Procedure: as §1, §2, §4

[5] = biological target: T2, human MOR; assay: [3H]-diprenorphine competitive displacement binding, MOR; conditions: membranes from CHO cells expressing human MOR; mean (SEM), n>=3 in duplicate
Procedure: as §1, §2, §4

[6] = biological target: T3, human KOR; assay: [35S]-GTPγS binding stimulation, KOR; format: biochemical; conditions: mean (SEM); for EC50 / EC50 KOR: CHO-human KOR membranes, * n = 2, dns = does not stimulate, average maximal stimulation <10% at up to 10 µM; for Emax / % Stimulation KOR: versus 10 µM standard agonist U69,593, dns = average maximal stimulation <10% at up to 10 µM
Procedure: as §1, §2, §3

[7] = CHO-human DOR membranes, dns = does not stimulate, average maximal stimulation <10% at up to 10 µM

Compound: Cc1cccc(Cc2ccc3c(c2)CN(C(=O)[C@@H](N)Cc2c(C)cc(O)cc2C)CC3)c1C [Compound 8i, (S)-2-amino-1-(7-(2,3-dimethylbenzyl)-3,4-dihydroisoquinolin-2(1H)-yl)-3-(4-hydroxy-2,6-dimethylphenyl)propan-1-one]
- EC50 DOR [1, 7]: dns *
- % Stimulation DOR [1]: dns *
- EC50 [2]: 380 nM
- Emax [2]: 34%
- Ki [3]: 3.6 nM
- Ki [4]: 5.8 nM
- Ki [5]: 5.2 nM
- EC50 [6]: 1030 nM
- Emax [6]: 54%

Compound: Cc1cc(O)cc(C)c1C[C@H](N)C(=O)N1CCc2ccc(Cc3cccc4cccnc34)cc2C1 [Compound 8q, (S)-2-amino-3-(4-hydroxy-2,6-dimethylphenyl)-1-(7-(quinolin-8-ylmethyl)-3,4-dihydroisoquinolin-2(1H)-yl)propan-1-one]
- EC50 [1, 7]: 1.2 nM
- % Stimulation DOR [1]: 23 (4) %
- EC50 [2]: 24 nM
- Emax [2]: 63%
- Ki [3]: 0.46 nM
- Ki [4]: 19 nM
- Ki [5]: 1.4 nM
- EC50 [6]: 258 nM
- Emax [6]: 25%

Compound: Cc1cc(O)cc(C)c1C[C@H](N)C(=O)N1CCc2ccc(Cc3ccc4ccccc4c3)cc2C1 [Compound 8p, (S)-2-amino-3-(4-hydroxy-2,6-dimethylphenyl)-1-(7-(naphthalen-2-ylmethyl)-3,4-dihydroisoquinolin-2(1H)-yl)propan-1-one]
- EC50 DOR [1, 7]: dns
- % Stimulation DOR [1]: dns
- EC50 [2]: 176 nM
- Emax [2]: 51%
- Ki [3]: 3.5 nM
- Ki [4]: 142 nM
- Ki [5]: 5.8 nM
- EC50 KOR [6]: dns
- % Stimulation KOR [6]: dns

Compound: Cc1cc(O)cc(C)c1C[C@H](N)C(=O)N1CCc2ccc(CN3CCCc4ccccc43)cc2C1 [Compound 8x, (S)-2-amino-1-(7-((3,4-dihydroquinolin-1(2H)-yl)methyl)-3,4-dihydroisoquinolin-2(1H)-yl)-3-(4-hydroxy-2,6-dimethylphenyl)propan-1-one]
- EC50 DOR [1, 7]: dns *
- % Stimulation DOR [1]: dns *
- EC50 [2]: 73 nM
- Emax [2]: 65%
- Ki [3]: 6.6 nM
- Ki [4]: 7.1 nM
- Ki [5]: 7.2 nM
- EC50 [6]: 375 nM
- Emax [6]: 67%

Compound: COc1ccccc1Cc1ccc2c(c1)CN(C(=O)[C@@H](N)Cc1c(C)cc(O)cc1C)CC2 [Compound 8a, (S)-2-amino-3-(4-hydroxy-2,6-dimethylphenyl)-1-(7-(2-methoxybenzyl)-3,4-dihydroisoquinolin-2(1H)-yl)propan-1-one]
- EC50 DOR [1, 7]: dns *
- % Stimulation DOR [1]: dns *
- EC50 [2]: 92 nM
- Emax [2]: 37%
- Ki [3]: 2.7 nM
- Ki [4]: 3.1 nM
- Ki [5]: 3.7 nM
- EC50 [6]: 130 nM
- Emax [6]: 72%

Compound: Cc1cc(O)cc(C)c1C[C@H](N)C(=O)N1CCc2ccc(CN3CCCC3)cc2C1 [Compound 8m, (S)-2-amino-3-(4-hydroxy-2,6-dimethylphenyl)-1-(7-(pyrrolidin-1-ylmethyl)-3,4-dihydroisoquinolin-2(1H)-yl)propan-1-one]
- EC50 DOR [1, 7]: dns *
- % Stimulation DOR [1]: dns *
- Emax [2]: 40%
- Ki [3]: 175 nM
- Ki [4]: 69 nM
- Ki [5]: 17 nM
- EC50 KOR [6]: dns
- % Stimulation KOR [6]: dns

Compound: Cc1cc(O)cc(C)c1C[C@H](N)C(=O)N1CCc2ccc(Cc3cccc4cnccc34)cc2C1 [Compound 8s, (S)-2-amino-3-(4-hydroxy-2,6-dimethylphenyl)-1-(7-(isoquinolin-5-ylmethyl)-3,4-dihydroisoquinolin-2(1H)-yl)propan-1-one]
- EC50 DOR [1, 7]: dns
- % Stimulation DOR [1]: dns
- EC50 [2]: 43 nM
- Emax [2]: 28%
- Ki [3]: 1.2 nM
- Ki [4]: 10 nM
- Ki [5]: 9.7 nM
- EC50 [6]: 609 nM
- Emax [6]: 24%

Compound: Cc1cc(O)cc(C)c1C[C@H](N)C(=O)N1CCc2ccc(CN3Cc4ccccc4C3)cc2C1 [Compound 8z, (S)-2-amino-3-(4-hydroxy-2,6-dimethylphenyl)-1-(7-(isoindolin-2-ylmethyl)-3,4-dihydroisoquinolin-2(1H)-yl)propan-1-one]
- EC50 DOR [1, 7]: dns *
- % Stimulation DOR [1]: dns *
- EC50 [2]: 27 nM
- Emax [2]: 63%
- Ki [3]: 1.3 nM
- selectivity for MOR and DOR over KOR ([4]; binding selectivity): 43 fold
- Ki [4]: 65 nM
- Ki [5]: 1.5 nM
- EC50 KOR [6]: dns
- % Stimulation KOR [6]: dns

Compound: Cc1cc(O)cc(C)c1C[C@H](N)C(=O)N1CCc2ccc(Cc3ccccc3C#N)cc2C1 [Compound 8d, (S)-2-((2-(2-amino-3-(4-hydroxy-2,6-dimethylphenyl)propanoyl)-1,2,3,4-tetrahydroisoquinolin-7-yl)methyl)benzonitrile]
- EC50 DOR [1, 7]: dns
- % Stimulation DOR [1]: dns
- EC50 [2]: 664 nM
- Emax [2]: 31%
- Ki [3]: 3.6 nM
- Ki [4]: 0.5 nM
- Ki [5]: 6.8 nM
- EC50 [6]: 3.7 nM
- Emax [6]: 80%

Compound: Cc1cc(O)cc(C)c1C[C@H](N)C(=O)N1CCc2ccc(Cc3cccc(C(F)(F)F)c3)cc2C1 [Compound 8g, (S)-2-amino-3-(4-hydroxy-2,6-dimethylphenyl)-1-(7-(3-(trifluoromethyl)benzyl)-3,4-dihydroisoquinolin-2(1H)-yl)propan-1-one]
- EC50 DOR [1, 7]: dns
- % Stimulation DOR [1]: dns
- EC50 [2]: 205 nM
- Emax [2]: 45%
- Ki [3]: 1.6 nM
- Ki [4]: 5.4 nM
- Ki [5]: 4.1 nM
- EC50 [6]: 319 nM
- Emax [6]: 68%

Compound: Cc1cc(O)cc(C)c1C[C@H](N)C(=O)N1CCc2ccc(Cc3cccc4ccncc34)cc2C1 [Compound 8r, (S)-2-amino-3-(4-hydroxy-2,6-dimethylphenyl)-1-(7-(isoquinolin-8-ylmethyl)-3,4-dihydroisoquinolin-2(1H)-yl)propan-1-one]
- EC50 DOR [1, 7]: dns *
- % Stimulation DOR [1]: dns *
- EC50 [2]: 24 nM
- Emax [2]: 36%
- Ki [3]: 0.69 nM
- Ki [4]: 2.7 nM
- Ki [5]: 1.8 nM
- EC50 [6]: 65 nM
- Emax [6]: 42%

Compound: Cc1cc(O)cc(C)c1C[C@H](N)C(=O)N1CCc2ccc(Cc3ccnc4ccccc34)cc2C1 [Compound 8u, (S)-2-amino-3-(4-hydroxy-2,6-dimethylphenyl)-1-(7-(quinolin-4-ylmethyl)-3,4-dihydroisoquinolin-2(1H)-yl)propan-1-one]
- EC50 DOR [1, 7]: dns *
- % Stimulation DOR [1]: dns *
- EC50 [2]: 54 nM
- Emax [2]: 45%
- Ki [3]: 0.79 nM
- Ki [4]: 8.6 nM
- Ki [5]: 6.6 nM
- EC50 KOR [6]: dns
- % Stimulation KOR [6]: dns
